Measured values reported in patent publication US10220029B2, “Pharmaceutical composition comprising glutarimide derivatives and use thereof in the treatment of eosinophilic diseases” (OBSCHESTVO S ORGANICHENNOI OTVETSTVENNOSTIYU …, priority 2013, dated 2019).
Marks after values point to notes of the source that are not given here.

What was measured:
[1] = tested on: model of bronchial asthma in guinea pigs; assay: Content of cell elements in the blood in the model of bronchial asthma in guinea pigs; assay type: in vivo, guinea pig; details: Table 6 Experiment No. 2, 6 times, n = 8
Experimental: (§1) Bronchial asthma in guinea pigs was induced by a standard method [Ricciardolo F L, Nijkamp F, De Rose V, Folkerts G. The guinea pig as an animal model for asthma// Current Drug Targets. 2008 June; 9(6):452-65]. The animals were immunized by one parenteral administration of 0.5 mL of a solution comprising 100 μg/mL ovalbumin (Sigma) and 100 mg/mL aluminium hydroxide. Intact animals received a physiological saline solution in an amount of 0.5 mL.
(§2) On days 29, 30 and 31, hyperactivity of the respiratory airways was provoked by inhalation administration of ovalbumin in ascending concentrations of 0.1, 0.3, and 0.5 mg/mL on days 1, 2, and 3 of the provocation, respectively. The inhalation lasted 5 minutes or until asphyxia symptoms became apparent (fall to one side). On day 32, the animals received a challenging dose of ovalbumin (1 mg/mL) for 5 minutes, while assessing a bronchospastic reaction.
(§3) The studied compounds were administered to the animals once daily every day for 6 or 10 days; the administration was terminated two days before the administration of the challenging dose of antigen.
(§4) The bronchoalveolar lavage (BAL) and cardiac cavity blood were derived from the animals 24 hours after administration of the challenging dose. The BAL was collected under anesthesia by lavaging the lungs with 5 mL of a physiological saline solution heated to 37° C. through the trachea, using a syringe dosing device.
The blood was analyzed with a hemocytometer to determine leykoformula.
(§5) The study comprised 3 experiments, wherein the first one was directed to the evaluation of the effect of claimed compounds 1-6 on the cell composition of the BAL, the second and the third experiments were aimed at evaluating the effect of compounds 1 and 2 on the cell composition of the BAL, the cell composition of the blood, and on the bronchospasm severity.

[2] = tested on: model of bronchial asthma in guinea pigs; assay: Severity of bronchospasm in the model of bronchial asthma in guinea pigs; assay type: in vivo, guinea pig; details: Experiment No. 2, 6 times, n = 8
Experimental: as §1, §2, §3
The bronchospastic reaction was assessed by a change in the rate and depth of the respiratory movements and by the asphyxia symptom such as fall to one side. Spirogram was registered by laboratory experimental equipment (ADInstruments, Australia), using a base recording station (PowerLab 8sp.) and software LabCart. The registration was made using airflow sensors for laboratory animals and a spirograph with an integrated amplifier (ADInstruments).
as §5

[3] = tested on: model of bronchial asthma in guinea pigs; assay: Content of cell elements in BAL in the model of bronchial asthma in guinea pigs; assay type: in vivo, guinea pig
Experimental: as §1, §2, §3, §4
The absolute number of cell elements in 1 μL of the lavage (cytosis) was counted in the bronchoalveolar lavage, using the Goryaev camera. Then, the BAL was centrifuged at 200 g for 10 minutes. The residue was used to prepare swabs that were fixed in methanol and stained according to Romanovsky-Giemsa to count endopulmonary cytogram.
as §5

[4] = tested on: model of leukotriene-induced eosinophilic lung inflammation in guinea pigs; assay: Content of cell elements in BAL in the model of leukotriene-induced eosinophilic lung inflammation in guinea pigs; assay type: in vivo, guinea pig; details: 0.8 mg/kg intragastric, one time one hour before LTD4 (reference preparation); BAL 48 hours after LTD4; n = 8
Excerpt: The model of leukotriene-induced eosinophilic lung inflammation in guinea pigs was realized by a standard method [Underwood DC1, Osborn R R, Newsholme S J, Torphy T J, Hay D W. Persistent airway eosinophilia after leukotriene (LT) D4 administration in the guinea pig: modulation by the LTD4 receptor antagonist, pranlukast, or an interleukin-5 monoclonal antibody// Am J Respir Crit Care Med. 1996 October; 154(4 Pt 1):850-7]. A solution of leukotriene D4 (LTD4, Cayman Chemical, USA) at a concentration of […] (a flow rate of 250 mL/hr) was inhaled to male guinea pigs (250-300 g) under conditions of a double-chamber plethysmograph (Emka Technologies, France) for one minute. The studied compound was administered to the animals by the intragastric route four times: 24 hours and 1 hour before and 24 hours and 45 hours after the inhalation of LTD4. The reference preparation, montelukast (0.8 mg/kg), was administered one time by the intragastric route one hour before the inhalation of LTD4. Bronchoalveolar lavage was taken 48 hours after the inhalation of LTD4, and the total lymphocyte count and leukocyte formula were determined in the lavage. The number of guinea pigs in a group was 8.

[5] = tested on: model of sephadex-induced eosinophilic lung inflammation in rats; assay: Content of cell elements in BAL in the model of sephadex-induced eosinophilic lung inflammation in rats; assay type: in vivo, male Wistar rats; details: BAL 48 hours after sephadex
Experimental: The model of sephadex-induced eosinophilic lung inflammation in rats was realized by a standard method [Evaldsson C, Rydén I, Uppugunduri S. Isomaltitol exacerbates neutrophilia but reduces eosinophilia: new insights into the sephadex model of lung inflammation//Int Arch Allergy Immunol. 2011; 154(4):286-94]. Sephadex G-200 (Pharmacia, Sweden) was administered one time by inhalation to male Wistar rats at a dose of 5 mg/kg. The studied compounds were administered to the animals by the intragastric route four times: 24 hours and 1 hour before and 24 hours and 45 hours after administration of sephadex. The reference preparation, budesonide, was administered according to the same scheme, by inhalation at a dose of 0.5 mg/kg. Bronchoalveolar lavage was taken 48 hours after the inhalation of sephadex, and the total lymphocyte count and leukocyte formula in the lavage were determined. The number of rats in a group was 7 to 10.

[6] = Table 4, 14 mg/kg, 10 times of administration, n = 9
[7] = Table 5 Experiment No. 2, 0.14 mg/kg, 6 times, n = 8
[8] = Table 5 Experiment No. 2, 1.4 mg/kg, 6 times, n = 8
[9] = Table 5 Experiment No. 2, 14 mg/kg, 6 times, n = 8
[10] = Table 9, 1.8 mg/kg intragastric, four times, n = 7
[11] = Table 9, 18 mg/kg intragastric, four times, n = 7
[12] = Table 8, 0.5 mg/kg by inhalation, four times (reference preparation), n = 10

## O=C1CCCC(=O)N1CCc1ncc[nH]1 [Compound 2]
[1]; 0.14 mg/kg
  Banded neutrophils in the blood: 0.18 ± 0.04 10^9/L
  Basophils in the blood: 0 ± 0 10^9/L
  Cytosis in the blood: 7.80 ± 0.77*& 10^9/L
  Eosinophils in the blood: 0.09 ± 0.03& 10^9/L
  Lymphocytes in the blood: 3.95 ± 0.54& 10^9/L
  Monocytes in the blood: 0.18 ± 0.06 10^9/L
  Segmented neutrophils in the blood: 3.41 ± 0.41*& 10^9/L
[1]; 1.4 mg/kg
  Banded neutrophils in the blood: 0.21 ± 0.03 10^9/L
  Basophils in the blood: 0 ± 0 10^9/L
  Cytosis in the blood: 7.70 ± 0.40*& 10^9/L
  Eosinophils in the blood: 0.1 ± 0.03& 10^9/L
  Lymphocytes in the blood: 3.68 ± 0.25& 10^9/L
  Monocytes in the blood: 0.18 ± 0.06 10^9/L
  Segmented neutrophils in the blood: 3.53 ± 0.37*& 10^9/L
[1]; 14 mg/kg
  Banded neutrophils in the blood: 0.17 ± 0.04 10^9/L
  Basophils in the blood: 0 ± 0 10^9/L
  Cytosis in the blood: 6.93 ± 0.77& 10^9/L
  Eosinophils in the blood: 0.1 ± 0.04& 10^9/L
  Lymphocytes in the blood: 3.51 ± 0.41& 10^9/L
  Monocytes in the blood: 0.24 ± 0.08 10^9/L
  Segmented neutrophils in the blood: 2.9 ± 0.38& 10^9/L
[2]; 0.14 mg/kg
  The number of animals with moderate bronchospasm (without acute phase, with subacute phase, with breath management): 1
  The number of animals with moderate bronchospasm (without acute phase, with subacute phase, without breath management): 1
  The number of animals with severe bronchospasm (in acute and subacute phase): 2
  The number of animals without bronchospasm: 4
[2]; 1.4 mg/kg
  The number of animals with moderate bronchospasm (without acute phase, with subacute phase, with breath management): 0
  The number of animals with moderate bronchospasm (without acute phase, with subacute phase, without breath management): 3
  The number of animals with severe bronchospasm (in acute and subacute phase): 1
  The number of animals without bronchospasm: 4
[2]; 14 mg/kg
  The number of animals with moderate bronchospasm (without acute phase, with subacute phase, with breath management): 1
  The number of animals with moderate bronchospasm (without acute phase, with subacute phase, without breath management): 0
  The number of animals with severe bronchospasm (in acute and subacute phase): 2
  The number of animals without bronchospasm: 5
[3]; [6]
  Eosinophils in BAL: 1.30 ± 0.29*& 10^9/L
  Lymphocytes in BAL: 1.53 ± 0.50* 10^9/L
  Monocytes in BAL: 0.60 ± 0.14* 10^9/L
  Neutrophils in BAL: 1.05 ± 0.16*& 10^9/L
[3]; [7]
  Cytosis in BAL: 0.55 ± 0.09*& 10^9/L
  Eosinophils in BAL: 0.20 ± 0.03*& 10^9/L
  Lymphocytes in BAL: 0.07 ± 0.02& 10^9/L
  Monocytes in BAL: 0.24 ± 0.06*& 10^9/L
  Neutrophils in BAL: 0.03 ± 0.008*& 10^9/L
[3]; [8]
  Cytosis in BAL: 0.63 ± 0.09*& 10^9/L
  Eosinophils in BAL: 0.18 ± 0.02*& 10^9/L
  Lymphocytes in BAL: 0.06 ± 0.01& 10^9/L
  Monocytes in BAL: 0.29 ± 0.07* 10^9/L
  Neutrophils in BAL: 0.09 ± 0.002 10^9/L
[3]; [9]
  Cytosis in BAL: 0.56 ± 0.008*& 10^9/L
  Eosinophils in BAL: 0.21 ± 0.06*& 10^9/L
  Lymphocytes in BAL: 0.07 ± 0.009& 10^9/L
  Monocytes in BAL: 0.22 ± 0.05*& 10^9/L
  Neutrophils in BAL: 0.07 ± 0.002 10^9/L

## CC(C)(O)c1ccccc1CC[C@@H](SCC1(CC(=O)O)CC1)c1cccc(/C=C/c2ccc3ccc(Cl)cc3n2)c1 [Montelukast, montelukast, reference compound]
[4]
  Eosinophils, content of cell elements in 1 μL of BAL: 618 ± 116*& in 1 μL of BAL
  Leukocytes, content of cell elements in 1 μL of BAL: 24065 ± 415*& in 1 μL of BAL
  Lymphocytes, content of cell elements in 1 μL of BAL: 96 ± 39 in 1 μL of BAL
  Macrophages, content of cell elements in 1 μL of BAL: 1519 ± 263 in 1 μL of BAL
  Neutrophils, content of cell elements in 1 μL of BAL: 173 ± 41 in 1 μL of BAL

## CC1CC(=O)N(CCc2cnc[nH]2)C(=O)C1 [Compound 8]
[5]; [10]
  Eosinophils, content of cell elements in 1 μL of BAL: 202 ± 53*& in 1 μL of BAL
  Leukocytes, content of cell elements in 1 μL of BAL: 2796 ± 333 & in 1 μL of BAL
  Lymphocytes, content of cell elements in 1 μL of BAL: 82 ± 44 in 1 μL of BAL
  Macrophages, content of cell elements in 1 μL of BAL: 1860 ± 204& in 1 μL of BAL
  Neutrophils, content of cell elements in 1 μL of BAL: 303 ± 104& in 1 μL of BAL
[5]; [11]
  Eosinophils, content of cell elements in 1 μL of BAL: 318 ± 65*& in 1 μL of BAL
  Leukocytes, content of cell elements in 1 μL of BAL: 4250 ± 576 in 1 μL of BAL
  Lymphocytes, content of cell elements in 1 μL of BAL: 64 ± 45 in 1 μL of BAL
  Macrophages, content of cell elements in 1 μL of BAL: 2050 ± 462& in 1 μL of BAL
  Neutrophils, content of cell elements in 1 μL of BAL: 583 ± 180 in 1 μL of BAL

## CCCC1O[C@@H]2C[C@H]3[C@@H]4CCC5=CC(=O)C=C[C@]5(C)[C@H]4[C@@H](O)C[C@]3(C)[C@]2(C(=O)CO)O1 (stereo partly drawn) [Budesonide, budesonide, reference compound]
[5]; [12]
  Eosinophils, content of cell elements in 1 μL of BAL: 204 ± 84*& in 1 μL of BAL
  Leukocytes, content of cell elements in 1 μL of BAL: 1805 ± 318*& in 1 μL of BAL
  Lymphocytes, content of cell elements in 1 μL of BAL: 37 ± 10& in 1 μL of BAL
  Macrophages, content of cell elements in 1 μL of BAL: 1230 ± 205 in 1 μL of BAL
  Neutrophils, content of cell elements in 1 μL of BAL: 334 ± 119 in 1 μL of BAL
